# Experimental data taken from patent US10519152B2, “Compounds and their use in treating cancer” (AstraZeneca AB, priority 2017, dated 2019).
# Molecular target: T1, Estrogen Receptor (ERα) in MCF-7 human ductal carcinoma breast cell line (Homo sapiens, UniProt P03372)
# T1 construct: endogenous in cells; host or cells: MCF-7
# T1 sequence (P03372 1-595): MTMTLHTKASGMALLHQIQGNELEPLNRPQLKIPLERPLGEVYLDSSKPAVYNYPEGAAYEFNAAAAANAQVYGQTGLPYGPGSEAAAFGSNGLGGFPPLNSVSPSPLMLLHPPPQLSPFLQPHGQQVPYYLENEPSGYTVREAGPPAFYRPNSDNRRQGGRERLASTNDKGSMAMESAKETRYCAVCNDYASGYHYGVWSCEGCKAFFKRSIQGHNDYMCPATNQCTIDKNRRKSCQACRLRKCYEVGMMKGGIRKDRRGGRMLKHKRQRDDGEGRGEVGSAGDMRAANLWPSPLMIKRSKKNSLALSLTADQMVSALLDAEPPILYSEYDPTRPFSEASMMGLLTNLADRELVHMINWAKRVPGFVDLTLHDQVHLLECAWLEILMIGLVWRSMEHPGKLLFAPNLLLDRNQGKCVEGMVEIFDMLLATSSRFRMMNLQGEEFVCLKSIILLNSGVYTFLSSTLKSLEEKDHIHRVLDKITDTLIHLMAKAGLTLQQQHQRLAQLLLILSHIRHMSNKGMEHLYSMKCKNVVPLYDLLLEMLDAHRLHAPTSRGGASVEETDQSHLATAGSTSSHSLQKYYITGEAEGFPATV
# Experiment: MCF-7 ER degradation assay (cell based immuno-fluorescence)
# Settings: MCF-7 cells; for ER degradation ≥ 90% at 0.3 μM: ER degradation by fulvestrant at 0.3 μM is defined as 100%; for DC50: 18-22 hours incubation, 50% reduction of ERα expression, single experiment or average of two or more, read-out: MCF-7 ER degradation IC50
# Summary of the method: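 MCF-7 human ductal carcinoma breast cells were seeded at 3.75×10^4 cells per mL (40 μL per well) in 384 well plates with phenol red free DMEM containing 2 mM L-Glutamine and 5% (v/v) Charcoal/Dextran treated foetal calf serum. After overnight culture, compounds were acoustically dispensed, incubated 18-22 hours, then cells were formaldehyde-fixed and immunostained for ERα.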
Compound,ER degradation ≥ 90% at 0.3 μM,DC50
"Cc1ncsc1-c1ccc(CNC(=O)[C@@H]2C[C@@H](O)CN2C(=O)[C@@H](NC(=O)COCCCOCCCCCOc2cc(F)c([C@@H]3c4[nH]c5ccccc5c4C[C@@H](C)N3CC(C)(C)F)c(F)c2)C(C)(C)C)cc1 [Example 138, (2S,4R)-1-((S)-2-(2-(3-((5-(3,5-Difluoro-4-((R,3R)-2-(2-fluoro-2-methylpropyl)-3-methyl-2,3,4,9-tetrahydro-1H-pyrido[3,4-b]indol-1-yl)phenoxy)pentyl)oxy)propoxy)acetamido)-3,3-dimethylbutanoyl)-4-hydroxy-N-(4-(4-methylthiazol-5-yl)benzyl)pyrrolidine-2-carboxamide]",••,1.1 nM
"Cc1ncsc1-c1ccc(CNC(=O)[C@@H]2C[C@@H](O)CN2C(=O)[C@@H](NC(=O)COCCOCCCCCOc2cc(F)c([C@@H]3c4[nH]c5ccccc5c4C[C@@H](C)N3CC(F)(F)F)c(F)c2)C(C)(C)C)cc1 [Example 139, (2S,4R)-1-((S)-2-(2-(2-((5-(3,5-Difluoro-4-((1R,3R)-3-methyl-2-(2,2,2-trifluoroethyl)-2,3,4,9-tetrahydro-1H-pyrido[3,4-b]indol-1-yl)phenoxy)pentyl)oxy)ethoxy)acetamido)-3,3-dimethylbutanoyl)-4-hydroxy-N-(4-(4-methylthiazol-5-yl)benzyl)pyrrolidine-2-carboxamide]",••,1.1 nM
"Cc1ncsc1-c1ccc([C@H](C)NC(=O)[C@@H]2C[C@@H](O)CN2C(=O)[C@@H](NC(=O)COCCOCCCCCOc2cc(F)c([C@@H]3c4[nH]c5ccccc5c4C[C@@H](C)N3CC(F)(F)F)c(F)c2)C(C)(C)C)cc1 [Example 140, (2S,4R)-1-((S)-2-(2-(2-((5-(3,5-Difluoro-4-((1R,3R)-3-methyl-2-(2,2,2-trifluoroethyl)-2,3,4,9-tetrahydro-1H-pyrido[3,4-b]indol-1-yl)phenoxy)pentyl)oxy)ethoxy)acetamido)-3,3-dimethylbutanoyl)-4-hydroxy-N—((S)-1-(4-(4-methylthiazol-5-yl)phenyl)ethyl)pyrrolidine-2-carboxamide]",••,0.6 nM
"Cc1ncsc1-c1ccc(CNC(=O)[C@@H]2C[C@@H](O)CN2C(=O)[C@@H](NC(=O)CCCc2ccc(COc3cc(F)c([C@@H]4c5[nH]c6ccccc6c5C[C@@H](C)N4CC(C)(C)F)c(F)c3)nc2)C(C)(C)C)cc1 [Example 141, (2S,4R)-1-((S)-2-(4-(6-((3,5-Difluoro-4-((1R,3R)-2-(2-fluoro-2-methylpropyl)-3-methyl-2,3,4,9-tetrahydro-1H-pyrido[3,4-b]indol-1-yl)phenoxy)methyl)pyridin-3-yl)butanamido)-3,3-dimethylbutanoyl)-4-hydroxy-N-(4-(4-methylthiazol-5-yl)benzyl)pyrrolidine-2-carboxamide]",•,0.9 nM
"Cc1ncsc1-c1ccc(CNC(=O)[C@@H]2C[C@@H](O)CN2C(=O)[C@@H](NC(=O)COCCCCC(=O)NCCOc2cc(F)c([C@@H]3c4[nH]c5ccccc5c4C[C@@H](C)N3CC(C)(C)F)c(F)c2)C(C)(C)C)cc1 [Example 142, (2S,4R)-1-((S)-2-(2-((5-((2-(3,5-Difluoro-4-((1R,3R)-2-(2-fluoro-2-methylpropyl)-3-methyl-2,3,4,9-tetrahydro-1H-pyrido[3,4-b]indol-1-yl)phenoxy)ethyl)amino)-5-oxopentyl)oxy)acetamido)-3,3-dimethylbutanoyl)-4-hydroxy-N-(4-(4-methylthiazol-5-yl)benzyl)pyrrolidine-2-carboxamide]",••,0.2 nM
"Cc1ncsc1-c1ccc(CNC(=O)[C@@H]2C[C@@H](O)CN2C(=O)[C@@H](NC(=O)COCCCCC(=O)N(C)CCOc2cc(F)c([C@@H]3c4[nH]c5ccccc5c4C[C@@H](C)N3CC(C)(C)F)c(F)c2)C(C)(C)C)cc1 [Example 143, (2S,4R)-1-((S)-2-(2-((5-((2-(3,5-Difluoro-4-((1R,3R)-2-(2-fluoro-2-methylpropyl)-3-methyl-2,3,4,9-tetrahydro-1H-pyrido[3,4-b]indol-1-yl)phenoxy)ethyl)(methyl)amino)-5-oxopentyl)oxy)acetamido)-3,3-dimethylbutanoyl)-4-hydroxy-N-(4-(4-methylthiazol-5-yl)benzyl)pyrrolidine-2-carboxamide]",••,0.2 nM
"Cc1ncsc1-c1ccc(CNC(=O)[C@@H]2C[C@@H](O)CN2C(=O)[C@@H](NC(=O)COCc2ccc(C(=O)Nc3cc(F)c([C@@H]4c5[nH]c6ccccc6c5C[C@@H](C)N4CC(C)(C)F)c(F)c3)nc2)C(C)(C)C)cc1 [Example 144, N-(3,5-Difluoro-4-((1R,3R)-2-(2-fluoro-2-methylpropyl)-3-methyl-2,3,4,9-tetrahydro-1H-pyrido[3,4-b]indol-1-yl)phenyl)-5-((2-(((S)-1-((2S,4R)-4-hydroxy-2-((4-(4-methylthiazol-5-yl)benzyl)carbamoyl)pyrrolidin-1-yl)-3,3-dimethyl-1-oxobutan-2-yl)amino)-2-oxoethoxy)methyl)picolinamide]",••,0.5 nM
Cc1ncsc1-c1ccc(CNC(=O)[C@@H]2C[C@@H](O)CN2C(=O)[C@@H](NC(=O)CNCc2ccc(COc3cc(F)c([C@@H]4c5[nH]c6ccccc6c5C[C@@H](C)N4CC(C)(C)F)c(F)c3)nc2)C(C)(C)C)cc1 [Example 146],•,0.6 nM
"Cc1ncsc1-c1ccc(CNC(=O)[C@@H]2C[C@@H](O)CN2C(=O)[C@@H](NC(=O)CNCCCCCCCCOc2cc(F)c([C@@H]3c4[nH]c5ccccc5c4C[C@@H](C)N3CC(C)(C)F)c(F)c2)C(C)(C)C)cc1 [Example 147, (2S,4R)-1-((S)-2-(2-((8-(3,5-Difluoro-4-((1R,3R)-2-(2-fluoro-2-methylpropyl)-3-methyl-2,3,4,9-tetrahydro-1H-pyrido[3,4-b]indol-1-yl)phenoxy)octyl)amino)acetamido)-3,3-dimethylbutanoyl)-4-hydroxy-N-(4-(4-methylthiazol-5-yl)benzyl)pyrrolidine-2-carboxamide]",•,5.8 nM
"Cc1ncsc1-c1ccc([C@H](C)NC(=O)[C@@H]2C[C@@H](O)CN2C(=O)[C@@H](NC(=O)COCCCOCCCOc2cc(F)c([C@@H]3c4[nH]c5ccccc5c4C[C@@H](C)N3CC(C)(C)F)c(F)c2)C(C)(C)C)cc1 [Example 152, (2S,4R)-1-((S)-2-(2-(3-(3-(3,5-Difluoro-4-((1R,3R)-2-(2-fluoro-2-methylpropyl)-3-methyl-2,3,4,9-tetrahydro-1H-pyrido[3,4-b]indol-1-yl)phenoxy)propoxy)propoxy)acetamido)-3,3-dimethylbutanoyl)-4-hydroxy-N—((S)-1-(4-(4-methylthiazol-5-yl)phenyl)ethyl)pyrrolidine-2-carboxamide]",••,0.8 nM
"Cc1ncsc1-c1ccc([C@H](C)NC(=O)[C@@H]2C[C@@H](O)CN2C(=O)[C@@H](NC(=O)COCCOCCCCOc2cc(F)c([C@@H]3c4[nH]c5ccccc5c4C[C@@H](C)N3CC(C)(C)F)c(F)c2)C(C)(C)C)cc1 [Example 153, (2S,4R)-1-((S)-2-(2-(2-(4-(3,5-Difluoro-4-((1R,3R)-2-(2-fluoro-2-methylpropyl)-3-methyl-2,3,4,9-tetrahydro-1H-pyrido[3,4-b]indol-1-yl)phenoxy)butoxy)ethoxy)acetamido)-3,3-dimethylbutanoyl)-4-hydroxy-N—((S)-1-(4-(4-methylthiazol-5-yl)phenyl)ethyl)pyrrolidine-2-carboxamide]",••,0.4 nM
"Cc1ncsc1-c1ccc([C@H](C)NC(=O)[C@@H]2C[C@@H](O)CN2C(=O)[C@@H](NC(=O)COCCCCOCCCOc2cc(F)c([C@@H]3c4[nH]c5ccccc5c4C[C@@H](C)N3CC(C)(C)F)c(F)c2)C(C)(C)C)cc1 [Example 154, (2S,4R)-1-((S)-2-(2-(4-(3-(3,5-Difluoro-4-((1R,3R)-2-(2-fluoro-2-methylpropyl)-3-methyl-2,3,4,9-tetrahydro-1H-pyrido[3,4-b]indol-1-yl)phenoxy)propoxy)butoxy)acetamido)-3,3-dimethylbutanoyl)-4-hydroxy-N—((S)-1-(4-(4-methylthiazol-5-yl)phenyl)ethyl)pyrrolidine-2-carboxamide]",•,0.7 nM
"Cc1ncsc1-c1ccc([C@H](C)NC(=O)[C@@H]2C[C@@H](O)CN2C(=O)[C@@H](NC(=O)COCCOCCCCCOc2cc(F)c([C@@H]3c4[nH]c5ccccc5c4C[C@@H](C)N3CC(C)(C)F)c(F)c2)C(C)(C)C)cc1 [Example 156, (2S,4R)-1-((S)-2-(2-(2-((5-(3,5-Difluoro-4-((1R,3R)-2-(2-fluoro-2-methylpropyl)-3-methyl-2,3,4,9-tetrahydro-1H-pyrido[3,4-b]indol-1-yl)phenoxy)pentyl)oxy)ethoxy)acetamido)-3,3-dimethylbutanoyl)-4-hydroxy-N—((S)-1-(4-(4-methylthiazol-5-yl)phenyl)ethyl)pyrrolidine-2-carboxamide]",••,1.5 nM
